{"source": "patent US20240383904A1", "about": "“HETEROCYCLIC COMPOUNDS” (Hoffmann-La Roche Inc., priority 2021, published 2024)", "data": [{"target": "T1, MAGL (Homo sapiens, UniProt Q99685)", "T1 sequence (Q99685 1-303)": "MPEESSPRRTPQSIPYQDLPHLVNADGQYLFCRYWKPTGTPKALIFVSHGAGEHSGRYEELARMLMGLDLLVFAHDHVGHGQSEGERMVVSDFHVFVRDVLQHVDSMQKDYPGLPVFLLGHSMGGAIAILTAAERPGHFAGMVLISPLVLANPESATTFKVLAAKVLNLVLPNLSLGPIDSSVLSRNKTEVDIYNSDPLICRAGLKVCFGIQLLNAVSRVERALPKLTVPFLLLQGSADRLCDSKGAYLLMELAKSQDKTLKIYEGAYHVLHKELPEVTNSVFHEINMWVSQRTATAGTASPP", "experiment": "2-AG assay: MAGL inhibitory activity by hydrolysis of 2-arachidonoylglycerol to arachidonic acid, followed by mass spectrometry", "type": "biochemical", "details": "15 min preincubation, 30 min reaction at RT, 8 μM 2-arachidonoylglycerol", "text": "(§1) Compounds of formula (I) were profiled for MAGL inhibitory activity by determining the enzymatic activity by following the hydrolysis of the natural substrate 2-arachidonoylglycerol (2-AG) resulting in arachidonic acid, which can be followed by mass spectrometry. This assay is hereinafter abbreviated “2-AG assay”.\n(§2) Compounds of formula (I) were profiled for MAGL inhibitory activity by determining the enzymatic activity by following the hydrolysis of the natural substrate 2-arachidonoylglycerol (2-AG) resulting in arachidonic acid, which can be followed by mass spectrometry. This assay is hereinafter abbreviated “2-AG assay”. The 2-AG assay was carried out in 384 well polypropylene assay plates. Compound dilutions were made in 100% DMSO in a polypropylene plate in 3-fold dilution steps to give a final concentration range in the assay from 12.5 μM to […]. Compound dilutions were added to MAGL protein in assay buffer (50 mM TRIS, 1 mM EDTA, 0.01% (v/v) Tween-20, 2.5% (v/v) DMSO). After shaking, the plate was incubated for 15 min at RT. To start the reaction, 2-arachidonoylglycerol in assay buffer was added. The final concentrations in the assay was […] for MAGL protein and 8 μM 2-arachidonoylglyerol. After shaking and 30 min incubation at RT, the reaction was quenched by the addition of two assay volumes of acetonitrile containing 4 μM of d8-arachidonic acid. The amount of arachidonic acid formed was traced by an online SPE system (Agilent Rapidfire) coupled to a triple quadrupole mass spectrometer. A C18 SPE cartridge (Agilent G9205A) was used in an acetonitrile/water liquid setup. The mass spectrometer was operated in negative electrospray mode following the mass transitions 303.1→259.1 for arachidonic acid and 311.1→267.0 for d8-arachidonic acid. The activity of the compounds was calculated based on the ratio of intensities [arachidonic acid/d 8-arachidonic acid].", "units": {"IC50": "nM"}, "values": [{"compound": "2-[6-[[6- (trifluoromethyl)pyrida- zin-3-y1]methyl]-2- azaspiro[3.3]heptane-2- carbonyl]-2,5- diazaspiro[3.4]octan-6- one [Example 12]", "IC50": 36.4}, {"compound": "CS(=O)(=O)c1ccc(C[C@@H]2CCC3(C2)CN(C(=O)N2CC4(COCC(=O)N4)C2)C3)cc1", "note": "(single isomer, unassigned) [Example 73]", "IC50": 80.2}, {"compound": "CS(=O)(=O)c1ccc(C[C@H]2CCC3(C2)CN(C(=O)N2CC4(COCC(=O)N4)C2)C3)cc1", "note": "(single isomer, unassigned) [Example 74]", "IC50": 77.7}, {"compound": "O=C1NC2(CO1)CN(C(=O)N1CC3(CC[C@H](Oc4cnc(C(F)(F)F)cn4)C3)C1)C2", "note": "(single isomer, unassigned) [Example 100]", "IC50": 3.42}, {"compound": "O=C1NC2(CO1)CN(C(=O)N1CC3(CCC(Oc4cnc(C(F)(F)F)cn4)C3)C1)C2", "note": "(single isomer, unassigned) [Example 104]", "IC50": 2.85}, {"compound": "N=[S@@](=O)(c1ccc(CC2CC3(C2)CN(C(=O)N2CC4(CCCC(=O)N4)C2)C3)cc1)C(F)(F)F", "note": "(single isomer, unassigned) [Example 284, 2-[6-[[4-(trifluoromethylsulfoni-midoyl)phenyl]methyl]-2-azaspiro[3.3]heptane-2-carbonyl]-2,5-diazaspiro[3.5]nonan-6-one]", "IC50": 120}, {"compound": "N=[S@@](=O)(c1ccc(CC2CC3(C2)CN(C(=O)N2CC4(CCCC(=O)N4)C2)C3)cc1)C(F)(F)F", "note": "(single isomer, unassigned) [Example 287, 2-[6-[[4-(trifluoromethylsulfoni-midoyl)phenyl]methyl]-2-azaspiro[3.3]heptane-2-carbonyl]-2,5-diazaspiro[3.5]nonan-6-one]", "IC50": 437}, {"compound": "N=S(=O)(c1cccc(CC2CC3(C2)CN(C(=O)N2CC4(CCC(=O)N4)C2)C3)c1)C(F)(F)F", "note": "(stereo not drawn) [Example 1]", "IC50": 0.91}, {"compound": "N=S(=O)(c1ccc(CC2CC3(C2)CN(C(=O)N2CC4(CCC(=O)N4)C2)C3)cc1)C(F)(F)F", "note": "(stereo not drawn) [Example 2, 2-[6-[4-(trifluoromethylsulfoni-midoyl)benzyl]-2-azaspiro[3.3]heptane-2-carbonyl]-2,5-diazaspiro[3.4]octan-6-one]", "IC50": 2.15}, {"compound": "O=C1CCC2(CN(C(=O)N3CC4(CC(Cc5ccc(C(F)(F)F)nc5)C4)C3)C2)N1", "note": "[Example 3, 2-[6-[[6-(trifluoromethyl)-3-pyridyl]methyl]-2-azaspiro[3.3]heptane-2-carbonyl]-2,5-diazaspiro[3.4]octan-6-one]", "IC50": 2.85}, {"compound": "O=C1CCC2(CN(C(=O)N3CC4(CC(Cc5cnc(C(F)(F)F)cn5)C4)C3)C2)N1", "note": "[Example 4, 2-[6-[[5-(trifluoromethyl)pyrazin-2-yl]methyl]-2-azaspiro[3.3]heptane-2-carbonyl]-2,5-diazaspiro[3.4]octan-6-one]", "IC50": 11.2}, {"compound": "O=C1NC2(CO1)CN(C(=O)N1CC3(CC(Cc4cnc(C(F)(F)F)cn4)C3)C1)C2", "note": "[Example 5, 2-[6-[[5-(trifluoromethyl)pyrazin-2-y1]methyl]-2-azaspiro[3.3]heptane-2-carbonyl]-7-oxa-2,5-diazaspiro[3.4]octan-6-one]", "IC50": 1.15}, {"compound": "O=C1CCC2(CN(C(=O)N3CC4(CC(Cc5ccc(OC(F)(F)F)cn5)C4)C3)C2)N1", "note": "[Example 6, 2-[6-[[5-(trifluoromethoxy)-2-pyridyl]methyl]-2-azaspiro[3.3]heptane-2-carbonyl]-2,5-diazaspiro[3.4]octan-6-one]", "IC50": 0.47}, {"compound": "O=C1CCC2(CN(C(=O)N3CC4(CC(Cc5ncc(C(F)(F)F)cc5F)C4)C3)C2)N1", "note": "[Example 7, 2-[6-[[3-fluoro-5-(trifluoromethyl)-2-pyridyl]methyl]-2-azaspiro[3.3]heptane-2-carbonyl]-2,5-diazaspiro[3.4]octan-6-one]", "IC50": 0.35}, {"compound": "CS(=O)(=O)c1ccc(CC2CC3(C2)CN(C(=O)N2CC4(CCC(=O)N4)C2)C3)cc1", "note": "[Example 8, 2-[6-(4-mesylbenzyl)-2-azaspiro[3.3]heptane-2-carbonyl]-2,5-diazaspiro[3.4]octan-6-one]", "IC50": 15.1}, {"compound": "CS(=O)(=O)c1cccc(CC2CC3(C2)CN(C(=O)N2CC4(CCC(=O)N4)C2)C3)c1", "note": "[Example 9, 2-[6-(3-mesylbenzyl)-2-azaspiro[3.3]heptane-2-carbonyl]-2,5-diazaspiro[3.4]octan-6-one]", "IC50": 20.5}, {"compound": "CS(=O)(=O)c1cc(F)cc(CC2CC3(C2)CN(C(=O)N2CC4(CCC(=O)N4)C2)C3)c1", "note": "[Example 10, 2-[6-(3-fluoro-5-mesyl-benzyl)-2-azaspiro[3.3]heptane-2-carbonyl]-2,5-diazaspiro[3.4]octan-6-one]", "IC50": 24.5}, {"compound": "O=C1CCC2(CN(C(=O)N3CC4(CC(Cc5cnc(C(F)(F)F)nc5)C4)C3)C2)N1", "note": "[Example 11, 2-[6-[[2-(trifluoromethyl)pyrimi-din-5-y1]methyl]-2-azaspiro[3.3]heptane-2-carbonyl]-2,5-diazaspiro[3.4]octan-6-one]", "IC50": 31.2}, {"compound": "CS(=O)(=O)c1ccc(CC2CC3(C2)CN(C(=O)N2CC4(COC(=O)N4)C2)C3)cc1", "note": "[Example 13, 2-[6-(4-mesylbenzyl)-2-azaspiro[3.3]heptane-2-carbonyl]-7-oxa-2,5-diazaspiro[3.4]octan-6-one]", "IC50": 0.93}, {"compound": "O=C1NC2(CO1)CN(C(=O)N1CC3(CC(Cc4ccc(C(F)(F)F)nc4)C3)C1)C2", "note": "[Example 14, 2-[6-[[6-(trifluoromethyl)-3-pyridyl]methyl]-2-azaspiro[3.3]heptane-2-carbonyl]-7-oxa-2,5-diazaspiro[3.4]octan-6-one]", "IC50": 0.84}, {"compound": "CS(=O)(=O)c1cc(F)ccc1CC1CC2(C1)CN(C(=O)N1CC3(COC(=O)N3)C1)C2", "note": "[Example 15, 2-[6-(4-fluoro-2-mesyl-benzyl)-2-azaspiro[3.3]heptane-2-carbonyl]-7-oxa-2,5-diazaspiro[3.4]octan-6-one]", "IC50": 0.3}, {"compound": "N#Cc1cc(CC2CC3(C2)CN(C(=O)N2CC4(CCC(=O)N4)C2)C3)ccc1C(F)(F)F", "note": "[Example 16, 5-[[2-(6-keto-2,5-diazaspiro[3.4]octane-2-carbonyl)-2-azaspiro[3.3]heptan-6-yl]methyl]-2-(trifluoromethyl)benzoni-trile]", "IC50": 0.09}, {"compound": "N#Cc1cc(CC2CC3(C2)CN(C(=O)N2CC4(CNC(=O)N4)C2)C3)ccc1C(F)(F)F", "note": "[Example 17, 5-[[2-(6-keto-2,5,7-triazaspiro[3.4]octane-2-carbonyl)-2-azaspiro[3.3]heptan-6-yl]methyl]-2-(trifluoromethyl)benzoni-trile]", "IC50": 3.29}, {"compound": "N#Cc1cc(CC2CC3(C2)CN(C(=O)N2CC4(COC(=O)N4)C2)C3)ccc1C(F)(F)F", "note": "[Example 18, 5-[[2-(6-keto-7-oxa-2,5-diazaspiro[3.4]octane-2-carbonyl)-2-azaspiro[3.3]heptan-6-yl]methyl]-2-(trifluoromethyl)benzoni-trile]", "IC50": 0.02}, {"compound": "O=C1CCC2(CN(C(=O)N3CC4(CC(Cc5ncc(C(F)(F)F)cn5)C4)C3)C2)N1", "note": "[Example 19, 2-[6-[[5-(trifluoromethyl)pyrimi-din-2-yl]methyl]-2-azaspiro[3.3]heptane-2-carbonyl]-2,5-diazaspiro[3.4]octan-6-one]", "IC50": 7}, {"compound": "O=C1NC2(CO1)CN(C(=O)N1CC3(CC(Cc4ccc(Cl)cn4)C3)C1)C2", "note": "[Example 20, 2-[6-[(5-chloro-2-pyridyl)methyl]-2-azaspiro[3.3]heptane-2-carbonyl]-7-oxa-2,5-diazaspiro[3.4]octan-6-one]", "IC50": 0.31}, {"compound": "O=C1NC2(CO1)CN(C(=O)N1CC3(CC(Cc4cccc(S(=O)(=O)C(F)(F)F)c4)C3)C1)C2", "note": "[Example 21, 2-[6-(3-triflylbenzyl)-2-azaspiro[3.3]heptane-2-carbonyl]-7-oxa-2,5-diazaspiro[3.4]octan-6-one]", "IC50": 0.01}]}, {"target": "T1, MAGL", "experiment": "2-AG assay: MAGL inhibitory activity by hydrolysis of 2-arachidonoylglycerol to arachidonic acid, followed by mass spectrometry", "type": "biochemical", "details": "unit nM", "text": "as §1, §2", "units": {"IC50": "nM"}, "values": [{"compound": "O=C1NC2(CO1)CN(C(=O)N1CC3(CC(Cc4ccc(F)cc4C(F)(F)F)C3)C1)C2", "note": "[Example 22, 2-[6-[4-fluoro-2-(trifluoromethyl)benzyl]-2-azaspiro[3.3]heptane-2-carbonyl]-7-oxa-2,5-diazaspiro[3.4]octan-6-one]", "IC50": "< 5"}, {"compound": "O=C1NC2(CO1)CN(C(=O)N1CC3(CC(Cc4ccc(F)cc4F)C3)C1)C2", "note": "[Example 23, 2-[6-(2,4-difluorobenzyl)-2-azaspiro[3.3]heptane-2-carbonyl]-7-oxa-2,5-diazaspiro[3.4]octan-6-one]", "IC50": "< 5"}, {"compound": "O=C1NC2(CO1)CN(C(=O)N1CC3(CC(Cc4ccc(C(F)(F)F)cc4F)C3)C1)C2", "note": "[Example 24, 2-[6-[2-fluoro-4-(trifluoromethyl)benzyl]-2-azaspiro[3.3]heptane-2-carbonyl]-7-oxa-2,5-diazaspiro[3.4]octan-6-one]", "IC50": "< 5"}]}]}
